Assay results: patent US20190307821A1, “METHODS AND COMPOSITIONS FOR CANCER THERAPY” (priority 2016, published 2019)

Assays:
[1] = test system: parental and drug-resistant ID8 cells; type: cell-based, murine; conditions: 72-h cell viability assay, ID8-R versus parental cells
[2] = test system: OVV-EGFP in ID8-R tumor cells; type: cell-based, vaccinia virus
ID8-R tumor cells = type: cell-based, murine; conditions: 24 h cultures, OVV MOI of 1 or DOX 1 μM alone
[3] = test system: parental and drug-resistant CAOV2 cells; type: cell-based, human; conditions: 72-h cell viability assay, CAOV2-R versus parental
CAOV2-R cells = assay: Growth in the presence of DOX (trypan blue exclusion test); type: cell-based, human; conditions: DOX 3 μM, after a one-week period
Procedure: (§1) FIG. 9. Susceptibility of parental and resistant ID8 and CAOV2 tumor cells to PTX, CBDCA and DOX. (a) Characterization of side population (SP) in the parental (P) and drug-resistant (R) ID8 (left panel) and CAOV2 (right panel) tumor cells by Hoechst 33342 dye staining. One representative experiment of two independent experiments performed in duplicates is shown. Growth of the parental and drug-resistant tumor variants of ID8 (b) and CAOV2 (c) cells in the presence of PTX (59 nM) and CBDCA (2.6 μM) (left panel) or DOX (3 μM) (right panel) was determined by a trypan blue exclusion test for cell viability. Bars represent the mean±SD of two independent experiments using triplicate samples.

ID8-R cells = assay: as above; type: cell-based, murine; conditions: DOX 3 μM, after a one-week period
Procedure: as §1

[4] = test system: OVV-EGFP in CAOV2-R tumor cells; type: cell-based, vaccinia virus

**Q.** With COc1cccc2c1C(=O)c1c(O)c3c(c(O)c1C2=O)C[C@@](O)(C(=O)CO)C[C@@H]3O[C@H]1C[C@H](N)[C@H](O)[C@H](C)O1 [DOX, doxorubicin] as the molecule, how does the “IC50 values higher compared to the parental cells” value [1] read?
**A.** approximately 10 fold

**Q.** What about the “decrease in viral titers” value [2] of the same molecule?
**A.** 10 fold

**Q.** What about the “cells with apoptosis or necrosis” value (ID8-R tumor cells) of the same molecule?
**A.** ~20%

**Q.** And the “differences in the IC50 values between the resistant and parental cells” value [3]?
**A.** 3 fold

**Q.** What about the dead cells (CAOV2-R cells) of the same molecule?
**A.** over 90%

**Q.** What about the dead cells (ID8-R cells) of the same molecule?
**A.** over 90%

**Q.** And the “decrease in viral titers” value [4]?
**A.** 3 fold
